Data reported in patent publication US20140228423A1, “BIOMARKERS AND THERAPY FOR CANCER” (BAYLOR COLLEGE OF MEDICINE, priority 2011, published 2014).

Key:
[1] = system: OVCAR8 cells; experiment: QPCR follow-up of YM155-treated versus DMSO-treated OVCAR8 cells; type: cell-based, human; conditions: OVCAR8, 6 hours
Excerpt: (§1) Using Illumina gene expression analysis and QPCR followup, YM155-treated cells were compared with DMSO vehicle treated cells. […] DDIT3 (a.k.a., CHOP) is a proapoptotic protein whose induction is a hallmark of ER stress induced apoptosis (Wang et al., 2010). […] HSP72 has strong cytoprotective effect by functioning as a molecular chaperone in cytosolic protein folding, transport, and degradation (Morimoto et al., 1997; Tavaria et al., 1996), and as an inhibitor of cellular apoptosis (Gamido et al., 2003; Samali and Orrenius, 1998). In addition, HSP72 interacts with ER stress sensor protein IRE1a thereby enhancing IREla-XBP1 signaling at the ER and promoting adaptation to ER stress and cell survival (Gupta et al., 2010). HSP72 is normally expressed at low levels, and is induced upon exposure to environmental stress to exert its cytoprotective effect. However, in cancer, HSP72 is constitutively expressed in many cancer cell lines and biopsies, and its expression correlates with poor prognosis (Gabai et al., 2009). HSP72 provides a selective advantage to cancer cells by suppressing default senescence via p53-dependent and p53-independent pathways (Yaglom et al., 2007). Thus, YM155 acutely suppresses HSPA1A and HSPA1B, indicating a novel mechanism which may contribute directly to the anti-cancer effect of YM155.

[2] = system: OVCAR8 cells; experiment: Illumina gene expression analysis of YM155-treated versus DMSO-treated OVCAR8 cells; type: cell-based, human; conditions: OVCAR8, 6 hours
Protocol: as §1, with “To characterize the early targets of YM155 in cancer cells, the ovarian cancer cell line OVCAR8 was treated acutely for 6 hours with YM155 (10 nM). Using” for “Using”

[3] = system: OVCAR8 cells; experiment: High-throughput screen of Prestwick Chemical Library with or without YM155
Protocol: High-throughput screen for drugs that synergize with YM155. […] Digitonin (0.8 mg/ml) was used as a positive control for ˜100% cell death. […] The relative synergy for each drug was then calculated by subtracting measured cell survival of combinatorial treatment from the calculated c value.
To identify additional small molecules that synergize with YM155, a small library screen was performed.

[4] = system: OVCAR8 cells; experiment: Cell viability of OVCAR8 cells after 48 hours with drug (dose response); type: cell-based; conditions: Homo sapiens, OVCAR-8; 48-hr treatment of OVCAR8 cells
Protocol: (§2) FIG. 10. Drug and miRNA mimic effects on ovarian cancer cell viability (A-C) and proliferation (D). OVCAR8 cancer cells were incubated for 48 hours in the presence of YM155 (A) or everolimus (B) and assayed for cell viability. C. Three independent PTEN/DICER DKO mouse serous carcinoma cell lines were transfected with miRNA control (miR-Ctrl) or miR-34c mimics and assayed for cell viability 48 hours later. D. OVCAR8 cells were infected with lentivirus expressing miR-Ctrl or miR-34c and assayed for cell number. *, P<0.05; **, P<0.005; ***, P<0.0005
FIG. 17. Dose response curve of YM155 after 48-hr treatment of OVCAR8 cells.
Well-known as an apoptosis inhibitor, survivin has been identified to contribute to nearly every aspect of cancer from onset to outcome (Altieri, 2008; Martinelli et al., 2006). Nearly all serous, endometrioid, and poorly-differentiated ovarian cancers express surviving (Cohen et al., 2003), the levels of survivin correlate with poor prognostic parameters (Cohen et al., 2003), high levels of survivin are associated with taxol/platinum resistance (Zaffaroni et al., 2002), and women with PTEN-negative/survivin-positive ovarian cancers have the worst prognosis (Sui et al., 2006). […] Based on these findings, the inventors treated mouse serous cancer cell lines and the human serous cancer line OVCAR8 with YM155 or everolimus, an inhibitor of mTOR (FIG. 5A, B). […]

[5] = system: ovarian cancer cell lines and a pancreatic cancer cell line; experiment: Cell Titer Glo viability with YM155, parthenolide or both for 48 hours; conditions: single agents at levels giving about half inhibition, and their combination
[6] = system: Dicer-Pten DKO mouse cancer cell lines; experiment: Cell cycle analysis (PI, flow cytometry) after miR-34c transfection; type: cell-based; conditions: 48 hours after miR-34c transfection
Protocol: (§3) FIG. 13A is a cell viability assay. Dicer-Pten DKO mouse cancer cell lines were transfected with miR-34c followed by cell viability assay in 48 hours using CellTiter-Glo assay. FIG. 13B is cell cycle analysis. Forty-eight hours after miR-34c transfection, Dicer-Pten DKO mouse cancer cell lines were fixed in cold 70% ethanol and stained with PI. Cell cycle profiles were determined by flow cytometry and analyzed by flowjo.

[7] = system: PTEN/DICER DKO primary serous cancer cell lines; experiment: Microarray analysis (QPCR follow-up) of gene expression after miR-34c mimic transfection; type: cell-based, mouse
Protocol: To characterize the roles of miR-34c in regulating major cancer and cell cycle pathways, mimics were transfected into three independent PTEN/DICER DKO primary serous cancer cell lines and the human OVCAR8 serous cancer cell line and assayed for cell viability and cell proliferation (FIG. 5C, D) and microarray analysis was performed, with followup QPCR confirmation. […] The effects were examined of miR-34c on major pathway genes that contain miR-34c binding sites in their 3′UTR sequences as well as pathways in which these proteins lie. […] These findings are especially relevant to cancer treatment since mutations in TOP2A are associated with drug resistance, and TOP2A is the target for several chemotherapeutic agents.

[8] = system: Dicer-Pten DKO mouse cancer cell line; experiment: QPCR analysis of miR-34c downstream genes after miR-34c mimic transfection; type: cell-based
Excerpt: In FIG. 14, miR-34c inhibits cyclinE-CDK2 complex. Analysis of some of miR-34c downstream genes is shown. QPCR analysis showing relative quantity of CDK2 (A), CCNE2 (B) and CDKN1C(C) after miR-34c mimic transfection in Dicer-Pten DKO mouse cancer cell line.

[9] = system: OVCAR8; experiment: Lentiviral expression of miR-34c in OVCAR8: proliferation (CellTiter-Glo) and cell cycle (PI flow cytometry); type: cell-based, human
Protocol: as §2
In FIG. 16A, OVCAR8 infected with miR-34c or control lentivirus were seeded onto 96-well plates for proliferation assay measured by CellTiter-Glo assay. In FIG. 16B, five days after miR-34c or control lentivirus infection, cells were fixed in cold 70% ethanol and stained with PI. Cell cycle profiles were determined by flow cytometry and analyzed by flowjo.

[10] = system: Dicer-Pten DKO mouse cancer cell lines; experiment: Cell viability (CellTiter-Glo) of Dicer-Pten DKO mouse cancer cell lines after miRNA mimic transfection or everolimus; type: cell-based; conditions: for sensitivity of cells (anti-proliferative, secondary to G1 arrest, and pro-apoptotic effects): Dicer/Pten double null line from primary mouse serous cancer, everolimus 0.8 uM, 48 h, alone and in combination; for cell viability and proliferation after miR-34c mimic delivery: mouse and human serous cancer cell lines (three PTEN/DICER DKO lines, OVCAR8)
Protocol: FIG. 4. Activation of the PI3K pathway in Dicer/Pten DKO mice and effects of mir34c and everolimus on a Dicer/Pten DKO cell line. A, Western blot analysis of DKO fallopian tube tumors showing activation of AKT signaling compared with control fallopian tubes. B, A Dicer/Pten DKO cell line was transfected with miR-34c mimic or a control (miR-Ctrl), treated with everolimus (0.8 uM) or without (DMSO), and examined 48 h later for the effects on cell viability.
To functionally evaluate the roles of miR34c and the mTOR inhibitor everolimus in serous cancers, the inventors first generated 32 cell lines from primary cancers (5 lines), metastatic lesions (11 lines), and ascites fluid (16 lines) of independent Dicer/Pten DKO mice. The effects were analyzed of everolimus and miR-34c mimic alone and in combination on a confirmed Dicer/Pten double null cell line derived from a primary mouse serous cancer. […] Based on the studies, there are the following considerations: 1) MiR-34c and additional miRNAs function to suppress the development of high grade serous carcinomas and the […], and/or 2) Simultaneous pharmacological targeting of mTOR and pathways downstream of miR-34c and other miRNAs leads to therapies to eradicate high-grade serous carcinomas.
Dicer-Pten DKO mouse cancer cell line DKO-1 were transfected with various miRNA mimics including miR-31, miR-100, let-7b, miR-34c or a miRNA control (miR-Ctrl). Cell viability was measured by ATP quantitation-based CellTiter-Glo assay 48 hours after transfection.
as §3

[11] = system: mouse serous cancer cell lines and the human serous cancer line OVCAR8; experiment: Treatment of serous cancer cell lines with YM155 or everolimus; type: cell-based
Excerpt: Well-known as an apoptosis inhibitor, survivin has been identified to contribute to nearly every aspect of cancer from onset to outcome (Altieri, 2008; Martinelli et al., 2006). Nearly all serous, endometrioid, and poorly-differentiated ovarian cancers express surviving (Cohen et al., 2003), the levels of survivin correlate with poor prognostic parameters (Cohen et al., 2003), high levels of survivin are associated with taxol/platinum resistance (Zaffaroni et al., 2002), and women with PTEN-negative/survivin-positive ovarian cancers have the worst prognosis (Sui et al., 2006). […] Based on these findings, the inventors treated mouse serous cancer cell lines and the human serous cancer line OVCAR8 with YM155 or everolimus, an inhibitor of mTOR (FIG. 5A, B). […] These findings indicate that YM155 and everolimus can be used to identify small molecules that synergize with the compounds to eradicate high-grade serous carcinomas in women.

[12] = transient transfection, Dicer-Pten DKO cell lines

Compound: COCCn1c2c([n+](Cc3cnccn3)c1C)C(=O)c1ccccc1C2=O [YM155, sepantronium bromide]
- Fold Change YM155 (30 nM)/DMSO (QPCR): ATF3 [1]: 11.1
- Fold Change YM155 (30 nM)/DMSO (QPCR): BIRC5 (Survivin) [1]: −1.1
- Fold Change YM155 (30 nM)/DMSO (QPCR): DDIT3 [1]: 3.6
- Fold Change YM155 (30 nM)/DMSO (QPCR): DDIT4 [1]: 10.6
- Fold Change YM155 (30 nM)/DMSO (QPCR): HERPUD1 [1]: 3.1
- Fold Change YM155 (30 nM)/DMSO (QPCR): HSPA1A [1]: −7.5
- Fold Change YM155 (30 nM)/DMSO (QPCR): HSPA1B [1]: −4.4
- Fold Change YM155 (30 nM)/DMSO (QPCR): TRIB3 [1]: 2.0
- Fold Change YM155 (10 nM)/DMSO (Array): ATF3 [2]: 2.2
- Fold Change YM155 (10 nM)/DMSO (Array): BIRC5 (Survivin) [2]: −1.3
- Fold Change YM155 (10 nM)/DMSO (Array): DDIT3 [2]: 3.8
- Fold Change YM155 (10 nM)/DMSO (Array): DDIT4 [2]: 5.6
- Fold Change YM155 (10 nM)/DMSO (Array): HERPUD1 [2]: 2.2
- Fold Change YM155 (10 nM)/DMSO (Array): HSPA1A [2]: −2.6
- Fold Change YM155 (10 nM)/DMSO (Array): HSPA1B [2]: −2.6
- Fold Change YM155 (10 nM)/DMSO (Array): TRIB3 [2]: 2.6
- viability at 0.003 µM ([3]; Homo sapiens, OVCAR-8, read-out: Cell viability): 64.3%
- GI50 [4]: 4.6 nM
- inhibition of cancer cell viability [5]: ~50%

Compound: COc1cc(/C=C/C(=O)N2CCC=CC2=O)cc(OC)c1OC [Piperlongumine]
- cell survival ([3]; concentration of 6.3 mM): 10 % of the control

Compound: C[C@@H]1CC[C@@]2(OC1)O[C@H]1[C@@H](O)[C@H]3[C@@H]4CC[C@H]5C[C@@H](O[C@@H]6O[C@H](CO)[C@H](O[C@@H]7O[C@H](CO)[C@@H](O)[C@H](O[C@@H]8OC[C@@H](O)[C@H](O)[C@H]8O)[C@H]7O[C@@H]7O[C@H](CO)[C@H](O)[C@H](O[C@@H]8O[C@H](CO)[C@@H](O)[C@H](O)[C@H]8O)[C@H]7O)[C@H](O)[C@H]6O)[C@H](O)C[C@]5(C)[C@H]4CC[C@]3(C)[C@H]1[C@@H]2C [Digitonin]
- cell death ([3]; 0.8 mg/ml, positive control): ~100%

Compound: miR-34c mimic: mimic of miR-34c, mature sequence AGGCAGUGUAGUUAGCUGAUUGC (SEQ ID NO:2); also delivered by lentivirus (listed as RNA, chemistry not given here)
- cell cycle profile [6]: cell cycle arrest in G1 phase
- suppression of TOP2A ([7]; by the miR-34c mimic): 11.7 fold
- Fold Change miR-34c mimic: CCNE2 ([7]; gene CCNE2, predicted miR-34c binding site): −4.6
- Fold Change miR-34c mimic: CDC6 ([7]; gene CDC6, predicted miR-34c binding site): −5.5
- Fold Change miR-34c mimic: CDCA8 ([7]; gene CDCA8, predicted miR-34c binding site): −9.6
- Fold Change miR-34c mimic: CDK2 ([7]; gene CDK2): −3.4
- Fold Change miR-34c mimic: CDT1 ([7]; gene CDT1): −6.3
- Fold Change miR-34c mimic: INCENP ([7]; gene INCENP): −4.5
- Fold Change miR-34c mimic: MCM5 ([7]; gene MCM5, predicted miR-34c binding site): −18.7
- Fold Change miR-34c mimic: MDM2 ([7]; gene MDM2): 1.0
- Fold Change miR-34c mimic: MRVI1 ([7]; gene MRVI1): 10.2
- Fold Change miR-34c mimic: PBK ([7]; gene PBK): −5.7
- Fold Change miR-34c mimic: Survivin ([7]; gene Survivin): −4.8
- Fold Change miR-34c mimic: TOP2A ([7]; gene TOP2A): −11.7
- upregulation of MRVI1 ([7]; miR-34c mimic): 10.2 fold
- downregulation of direct targets MCM5, CDC6, CCNE2 and CDCA8 ([7]; upon delivery of miR-34c): 4.6-18.7 fold
- CDK2 relative quantity [8]: down regulating
- CDKN1C relative quantity [8]: up regulating
- cyclinE (CCNE2) relative quantity [8]: down regulating
- cell cycle profile ([9]; five days after lentivirus infection, OVCAR8): arresting cancer cells in G1 phase
- cell proliferation ([9]; lentiviral expression of miR-34c in OVCAR8): inhibits cell proliferation
- sensitivity of cells (anti-proliferative, secondary to G1 arrest, and pro-apoptotic effects) [10]: exquisitely sensitive
- suppression of mouse and human ovarian cancer cell viability among miRNAs tested ([10]; Dicer/Pten serous ovarian cancer model): the only miRNA to suppress
- cell viability and proliferation after miR-34c mimic delivery [10]: dramatic effect
- cell viability and proliferation after miR-34c mimic delivery ([10]; listed as miR-34c): reduced cell viability
- apoptosis [10, 12]: induction of apoptosis
- cell growth [10, 12]: growth inhibitory effect

Compound: CO[C@H]1C[C@@H]2CC[C@@H](C)[C@@](O)(O2)C(=O)C(=O)N2CCCC[C@H]2C(=O)O[C@H]([C@H](C)C[C@@H]2CC[C@@H](OCCO)[C@H](OC)C2)CC(=O)[C@H](C)/C=C(\C)[C@@H](O)[C@@H](OC)C(=O)[C@H](C)C[C@H](C)/C=C/C=C/C=C/1C [everolimus, reference compound]
- sensitivity of the tumors (cell viability) [11]: micromolar levels
- sensitivity of cells (anti-proliferative, secondary to G1 arrest, and pro-apoptotic effects) [10]: exquisitely sensitive
